Laboratory results published in patent US10611765B2, “Pyrrolopyrimidine derivatives as Mps1/TTK kinase inhibitors” (Ohio State Innovation Foundation, priority 2014, dated 2020).
Read-outs that look alike come from different tables or passages of the source.

Key:
MDA-MB-436 = test: MTS anti-proliferative assay, MDA-MB-436; format: cell-based; details: MDA-MB-436, TNBC, basal B, treatment for 7 days
Experimental: (§1) The anti-proliferative effects and IC50 values of the compounds in the BC cell line panel were determined by MTS assay.
(§2) The media were changed every 2-days. When the cells grew to about 80% confluence, cells were washed twice with calcium- and magnesium-free phosphate-buffered saline (PBS, pH 7.4), and then trypsinized with 0.05% trypsin-5.3 mm EDTA. The trypsinization was stopped by addition of culture medium with 5% FBS.
(§3) The BC cells were seeded at the density of 1,000 cells per well (100 μL) into 96 well plate in DMEM/F-12 (1:1), supplemented with 5% (v/v) FCS and incubated overnight at 37° C. Test compounds are solubilized in dimethyl sulfoxide (DMSO), diluted in cell culture medium to a range of final assay concentrations of 1 nM to 10 μM, added to cells and incubated for 7 days at 37° C. The medium including the test compound are refreshed at days 3 and 5. The MTS assay are carried out by using the CellTiter 96® AQueous One Solution Cell Proliferation Assay kit following the manufacturer's instruction.

BT-474 = test: MTS anti-proliferative assay, BT-474; format: cell-based; details: BT-474, luminal B, treatment for 7 days
Experimental: as §1
(§4) The cells, except Sk-Br-3, AU565 and BT-474 were maintained in a mixture of Dulbecco's modified Eagle's medium and Ham's F12 medium (1:1) (DMEM/F12) without phenol red supplemented with 5% fetal bovine serum (FBS) and 1× antibiotic-antimycotic (100 U/mL penicillin G sodium, 100 μg/mL streptomycin sulfate and 0.25 μg/mL amphotericin B) and were plated separately in flasks in a humidified incubator (5% CO2: 95% air, 37° C.). The media used for Sk-Br-3, AU565 and BT-474 cell lines was described in (1) Brueggemeier et al., J. Steroid Biochem. Mol. Biol., 2005; 95:129-136; and (2) Diaz-Cruz et al., J. Clin. Endocrinol. Metab., 2005; 90:2563-2570. The media were changed every 2-days. When the cells grew to about 80% confluence, cells were washed twice with calcium- and magnesium-free phosphate-buffered saline (PBS, pH 7.4), and then trypsinized with 0.05% trypsin-5.3 mm EDTA. The trypsinization was stopped by addition of culture medium with 5% FBS. After centrifugation, the dissociated cells were resuspended in the same medium and subcultured into 75-cm^2 culture flasks at a ratio of 1:5 flasks.
as §3

MDA-MB-468 = test: MTS anti-proliferative assay, MDA-MB-468; format: cell-based; details: MDA-MB-468, TNBC, basal B, treatment for 7 days
Experimental: as §1, §4, §3

Sk-Br-3 = test: MTS anti-proliferative assay, Sk-Br-3; format: cell-based; details: Sk-Br-3, luminal, treatment for 7 days
Experimental: as §1, §4, §3

T47D = test: MTS anti-proliferative assay, T47D; format: cell-based; details: luminal, treatment for 7 days
Experimental: as §1, §4, §3

[1] = biological target: T1, Mps1/TTK kinase (recombinant GST-Mps1) (Homo sapiens, UniProt P33981); test: Mps1 in vitro kinase assay with Cetn2 substrate; format: biochemical
T1 sequence (P33981 1-857): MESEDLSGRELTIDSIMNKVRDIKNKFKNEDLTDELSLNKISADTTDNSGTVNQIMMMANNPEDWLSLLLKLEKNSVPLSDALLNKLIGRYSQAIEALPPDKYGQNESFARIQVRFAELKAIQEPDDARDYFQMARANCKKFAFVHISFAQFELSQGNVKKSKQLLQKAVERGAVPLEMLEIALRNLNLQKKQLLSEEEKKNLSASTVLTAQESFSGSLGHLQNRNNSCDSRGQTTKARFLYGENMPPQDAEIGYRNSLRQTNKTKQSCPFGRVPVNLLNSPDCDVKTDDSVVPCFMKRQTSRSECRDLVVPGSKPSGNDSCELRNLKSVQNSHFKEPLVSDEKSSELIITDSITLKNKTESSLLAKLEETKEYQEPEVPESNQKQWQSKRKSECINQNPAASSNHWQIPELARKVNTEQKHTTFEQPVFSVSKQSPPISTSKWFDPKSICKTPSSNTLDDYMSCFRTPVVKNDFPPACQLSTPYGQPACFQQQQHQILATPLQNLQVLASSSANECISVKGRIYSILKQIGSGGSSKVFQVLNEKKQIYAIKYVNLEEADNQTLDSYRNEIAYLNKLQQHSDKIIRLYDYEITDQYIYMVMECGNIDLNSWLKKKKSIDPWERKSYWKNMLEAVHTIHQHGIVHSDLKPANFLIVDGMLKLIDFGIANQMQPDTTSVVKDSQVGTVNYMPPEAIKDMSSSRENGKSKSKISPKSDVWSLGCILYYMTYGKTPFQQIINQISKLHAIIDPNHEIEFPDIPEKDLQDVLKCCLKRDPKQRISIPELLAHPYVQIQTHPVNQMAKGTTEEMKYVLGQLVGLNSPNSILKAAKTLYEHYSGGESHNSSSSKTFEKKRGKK
Experimental: To determine the efficacy of the compounds against Mps1/TTK kinase activity, assays were performed as previously described (11) using recombinant Mps1, Cetn2 (specific substrate), and varying concentration of compound.

Hs578T = test: MTS anti-proliferative assay, Hs578T; format: cell-based; details: TNBC, basal B, treatment for 7 days
Experimental: as §1, §4, §3

[2] = tested on: panel of breast cancer cell lines; test: Anti-proliferative assays, panel of BC cell lines (overall statements); format: cell-based; details: in some or all of the cell based assays in the panel
Experimental: This example describes the development of novel small molecule Mps1/TTK inhibitors as targeted therapies for TNBC and other aggressive BC using drug discovery technologies. Using computational modeling, medicinal chemistry, biochemistry and cell culture assays, the inventors have identified novel small molecules as potential Mps1/TTK inhibitors. The compounds were evaluated in anti-proliferative assays of a panel of 15 BC cell lines and further examined for their ability to inhibit a variety of Mps1-dependent biological functions.
as §1, §4, §3

MCF-7 = test: MTS anti-proliferative assay, MCF-7; format: cell-based; details: MCF-7, luminal A, treatment for 7 days
Experimental: as §1, §4, §3

MDA-MB-453 = test: MTS anti-proliferative assay, MDA-MB-453; format: cell-based; details: MDA-MB-453, luminal A, treatment for 7 days
Experimental: as §1, §2, §3

CAMA-1 = test: MTS anti-proliferative assay, CAMA-1; format: cell-based; details: CAMA-1, luminal, treatment for 7 days
Experimental: as §1, §4, §3

MDA-MB-231 = test: MTS anti-proliferative assay, MDA-MB-231; format: cell-based; details: MDA-MB-231, TNBC, basal B, treatment for 7 days
Experimental: as §1, §4, §3

CAL-51 = test: MTS anti-proliferative assay, CAL-51; format: cell-based; details: CAL-51, TNBC, basal, treatment for 7 days
Experimental: as §1, §4, §3

BT-549 = test: MTS anti-proliferative assay, BT-549; format: cell-based; details: BT-549, TNBC, basal B, treatment for 7 days
Experimental: as §1, §4, §3

BT-20 = test: MTS anti-proliferative assay, BT-20; format: cell-based; details: BT-20, TNBC, basal A, treatment for 7 days
Experimental: as §1, §4, §3

AU565 = test: MTS anti-proliferative assay, AU565; format: cell-based; details: AU565, luminal, treatment for 7 days
Experimental: as §1, §4, §3

HCC1937 = test: MTS anti-proliferative assay, HCC1937; format: cell-based; details: HCC1937, TNBC, basal, treatment for 7 days
Experimental: as §1, §4, §3

Cal-51 cells = test: Centriole assembly / centrosome amplification assay, Cal-51; format: cell-based; details: Cal-51, at 10 μM
Experimental: (§5) For these cell biology assays, cells were plated onto poly-L-lysine coated coverslips in 24 well dishes using the medium and growth conditions described above, but using medium containing phenol red. At 24 hours after plating, compounds (or the equivalent amount of DMSO) were added to individual wells at various concentrations. Cells were incubated for 24 hours at 37° C. BrdU was added during the last 4 hours of the incubation, after which cells were fixed in pre-chilled methanol at −20 OC for 10 minutes, stained with centrosome markers, then treated with acid to denature chromosomal DNA prior to staining for BrdU. To assess centriole biogenesis, centriole number was determined for triplicate samples in cells that had entered S-phase as judged by incorporation of BrdU. Primary antibodies used were mouse anti-γTubulin (pericentriolar material) and rabbit anti-Centrin 2 (centrioles). Secondary antibodies used were Alexa594-conjugated donkey anti-mouse and Alexa488-conjugated donkey anti-rabbit.
For centriole assembly assays, Cal-51 and MDA-MB-468 cells were treated with candidate compounds prior to a short pulse of BrdU. Because the centriole pair is replicated at the G1/S transition, compounds that block centrosome assembly will lead to an increased number of BrdU-positive cells with two centrioles. In addition, like many breast cancer cells Cal-51 and MDA-MB-468 are capable of centrosome amplification, and compounds that block this centrosome amplification should reduce the number of BrdU-positive cells with more than four centrioles.

[3] = tested on: S-phase (BrdU-positive) cells; test: Centriole number in S-phase cells (preliminary investigations); format: cell-based; details: drug for 20 hours, then 4 hour pulse of BrdU
Experimental: as §5
For centriole assembly assays, Cal-51 and MDA-MB-468 cells were treated with candidate compounds prior to a short pulse of BrdU. Because the centriole pair is replicated at the G1/S transition, compounds that block centrosome assembly will lead to an increased number of BrdU-positive cells with two centrioles. […]

[4] = additional investigations (text to Table 2), read-out: IC50, in vitro kinase activity of Mps1
[5] = in vitro kinase assay with Cetn2 substrate, Table 2, read-out: IC50 w/Cetn 2

Molecule	IC50 (MDA-MB-436; Homo sapiens, 168 h)	IC50 (BT-474; Homo sapiens, 168 h)	IC50 (MDA-MB-468; Homo sapiens, 168 h)	IC50 (Sk-Br-3; Homo sapiens, 168 h)	IC50 [1, 4]	IC50 [1, 5]	IC50 (Hs578T; Homo sapiens, Hs-578T, 168 h)	potency as compared to Mps1-IN-1 [2]	IC50 (MCF-7; Homo sapiens, MCF7, 168 h)	IC50 (MDA-MB-453; Homo sapiens, 168 h)	IC50 (CAMA-1; Homo sapiens, 168 h)	IC50 (MDA-MB-231; Homo sapiens, 168 h)	IC50 (CAL-51; Homo sapiens, 168 h)	IC50 (BT-549; Homo sapiens, 168 h)	IC50 (BT-20; Homo sapiens, 168 h)	IC50 (HCC1937; Homo sapiens, 168 h)	effect on centriole assembly (Cal-51 cells)	effect on centrosome amplification (Cal-51 cells)	effect on centriole assembly [3]	other results
COc1ccccc1Nc1nc(Nc2ccccc2S(=O)(=O)C(C)C)c2cc[nH]c2n1 [Compound 10, N4-(2-(isopropylsulfonyl)phenyl)-N2-(2-methoxyphenyl)-7H-pyrrolo-[2,3-d]pyrimidine-2,4-diamine]	1290 nM	720 nM	1860 nM	970 nM	3400 nM	3420 nM	> 10000 nM	significantly more potent	350 nM	> 10000 nM	1550 nM	450 nM	1500 nM	1600 nM	50 nM	990 nM	–	–	–	IC50 (T47D; Homo sapiens, 168 h): 340 nM; IC50 (AU565; Homo sapiens, 168 h): > 10000 nM
COc1cc(N2CCOCC2)ccc1Nc1nc(Nc2ccccc2S(=O)(=O)C(C)C)c2cc[nH]c2n1 [Compound 11, N4-(2-(isopropylsulfonyl)phenyl)-N2-(2-methoxy-4-morpholinophenyl)-7H-pyrrolo[2,3-d]pyrimidine-2,4-diamine]	1230 nM	330 nM	360 nM	370 nM	13100 nM	13100 nM	> 10000 nM	significantly more potent	400 nM	> 10000 nM	780 nM	> 10000 nM	300 nM	1310 nM	1500 nM	1100 nM	–	–	–	–
COc1cc(N2CCC(O)CC2)ccc1Nc1cc(Nc2ccccc2S(=O)(=O)C(C)C)c2cc[nH]c2n1 [Mps1-IN-1, reference compound]	–	–	–	–	–	–	–	–	–	–	–	–	–	–	–	–	little effect	little effect	little effect	IC50 (MDA-MB-436): > 10000 nM; IC50 (BT-474): > 10000 nM; IC50 (MDA-MB-468): 1850 nM; IC50 (Sk-Br-3): > 10000 nM; IC50 (T47D): > 10000 nM; IC50 (Hs578T): > 10000 nM; IC50 (MCF-7): > 10000 nM; IC50 (MDA-MB-453): > 10000 nM; IC50 (CAMA-1): > 10000 nM; IC50 (MDA-MB-231): > 10000 nM; IC50 (CAL-51): 1840 nM; IC50 (BT-549): 2440 nM; IC50 (BT-20): > 10000 nM; IC50 (AU565): > 10000 nM; IC50 (HCC1937): > 10000 nM
AZ3146	–	–	–	–	–	–	–	–	–	–	–	–	–	–	–	–	little effect	little effect	little effect	–
